The conditions of data set [1]: in vivo; cited from earlier work.
Data set [2] has as its system cAMP levels in MCF-7 cells. The experiment in a line: cAMP radioimmunoassay. The note with it: 5 minutes; for cAMP accumulation / production: exendin-4 5 nM, GLP-1 5 nM, exendin (9-39) 100 nM, 2′5′-dideoxy adenosine 30 μM (60 minutes preincubation). Type of data set: cell-based. On the procedure: cAMP measurements: For cAMP measurement, a radioimmunoassay was carried out as follows: cells and 100 μl media were snap frozen in liquid nitrogen, thawed and diluted in buffer acetate. […] Bound cAMP was precipitated and counted in a γ-counter, and concentration determined using a standard curve and positive controls.
(Changes in cAMP serve as a functional read-out for many G protein-coupled receptors.)

In data set [3] the test system is CREB, p38, ERK1/2, AKT, AMPK in MCF-7 cells. In words: Western blot of signaling pathways (CREB, p38, ERK1/2, AKT, AMPK, ACC). Type of data set: cell-based. The note with it: for AMPK and ACC phosphorylation (AMP kinase activity): comparable to the AMPK activator AICAR. On the procedure:
50 μg protein extracts were loaded on 10% polyacrylamide gels, separated electrophoretically and blotted from the gel onto nitrocellulose membrane (Schleicher & Schuell Bioscience GmbH, Dassel, Del.). The membranes were then immunoblotted with the indicated antibodies. Band intensities were quantified using ImageJ software. Colony assays: 200 cells/well were plated on 12-well plate. […] Medium was replaced twice a week and at day 14, the cells were stained using crystal violet. Quantification of the results was performed using ImageJ.

Data set [4] deals with MCF-7 cells. In words: cells. Type of data set: cell-based. Particulars: Homo sapiens, MCF7, read-out: inhibition of cell viability. The text has this: Human embryonic kidney HEK-293 and primary liver cells were used as controls.
Medium was replaced once after 48 hrs.

The conditions of data set [5]: cited from earlier work.
For data set [6], the system named is MCF-7 cells. The note with it: human, 72 h, 50 nM. On the procedure: Doxorubicin is a commonly used chemotherapy against breast cancer.
Media and treatments were changed once after 48 hrs. After 72 hrs of incubation at 37° C., 5% CO2, the cells were cultured for four hours with 10% MIT reagent (5 mg/ml; Sigma-Aldrich). The medium was aspirated, and the cells were dissolved by dimethyl sulfoxide (DMSO). Absorbance of the formazan product was measured by an enzyme-linked immunosorbent assay reader.

Entries after “also recorded” stand apart in the source; their conditions may differ.

For Glucagon-like peptide 1 [GLP-1], in data set [1], the “crossing of the blood-brain barrier” value is “able to cross the blood-brain barrier”. The “cAMP accumulation / production” value in data set [2] is “elevated; also recorded: similar”. In data set [3], the “p38 MAPK activation / phosphorylation” value is “induced; also recorded: activated”; the “AMPK and ACC phosphorylation (AMP kinase activity)” value is “phosphorylated”. In addition, in data set [3] (15 minutes), the CREB phosphorylation entry is on record as “induced; also recorded: CREB phosphorylation”; the “ERK1/2 and AKT pathways” value is listed as “Neither GLP-1 nor exendin-4 affected; also recorded: neither ERK1/2 nor AKT were affected”.
As to `C=C[C@@]1(C)CC(=O)[C@]2(O)[C@@]3(C)[C@@H](O)CCC(C)(C)[C@@H]3[C@H](O)[C@H](OC(C)=O)[C@@]2(C)O1` [forskolin], in the data set on MCF-7 cells [4], the cytotoxicity at 1 µM is 60%. In addition, the “elevation of cAMP levels” value in data set [2] (forskolin 1 μM) amounted to 6 fold.
Take `C[C@H]1O[C@@H](n2cnc3c(N)ncnc32)C[C@@H]1O` [ddA, 2′5′ dideoxy-adenosine]: the “cAMP accumulation / production” value in data set [2] was “inhibited”.
In the case of `N[C@@H](CC(=O)N1CCn2c(nnc2C(F)(F)F)C1)Cc1cc(F)c(F)cc1F` [Sitagliptin, (2R)-4-oxo-4-[3-(trifluoromethyl)-5,6-dihydro[1,2,4]triazolo[4,3-a]pyrazin-7(8H)-yl]-1-(2,4,5-trifluorophenyl)butan-2-amine], the “eliminated without being metabolized” value in data set [5] (human subjects, via the kidney) was 74%. In addition, the half life in data set [5] (in vivo) was 8 to 12 h.
The compound `COc1cccc2c1C(=O)c1c(O)c3c(c(O)c1C2=O)C[C@@](O)(C(=O)CO)C[C@@H]3O[C@H]1C[C@H](N)[C@H](O)[C@H](C)O1` [doxorubicin] had a reduction of viability in the data set on MCF-7 cells [6] of 20%. The “crossing of the blood-brain barrier” value in data set [1] is recorded as “does not cross the blood-brain barrier”.
exendin(9-39): the “cAMP accumulation / production” value in data set [2] was “increased cAMP accumulation similarly to exendin-4 and GLP-1”. Moreover, in data set [3], the “p38 MAPK activation / phosphorylation” value is recorded as “enhanced”; the “AMPK and ACC phosphorylation (AMP kinase activity)” value is reported as “phosphorylated”. Besides, in data set [3] (15 minutes), the CREB phosphorylation result is “enhanced”.

The values are drawn from US20110046071A1 (TEL HASHOMER MEDICAL RESEARCH INFRASTRUCTURE AND SERVICES …, priority 2008, published 2011).
